Assay results reported in ChEMBL document CHEMBL1201862, “PubChem BioAssay data set” (2004).
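Test compounds were applied to cells in 96-well plates for 48 hours at 5 doses. GI50 marks 50% less growth.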 Active and inactive are the calls of the source. Rule as the data show it: active = GI50 up to about 1.1 µM and inactive = higher.

What was measured:
Experiment in all cases: growth of human tumour cells (NCI), 48 h
EKVX = tested on: EKVX
SN12C = tested on: SN12C
Malme-3M = tested on: Malme-3M
SK-MEL-2 = tested on: SK-MEL-2
HOP-92 = tested on: HOP-92
OVCAR-4 = tested on: OVCAR-4
OVCAR-5 = tested on: OVCAR-5
SK-MEL-5 = tested on: SK-MEL-5
OVCAR-3 = tested on: OVCAR-3
SK-MEL-28 = tested on: SK-MEL-28
HCC 2998 = tested on: HCC 2998
IGROV-1 = tested on: IGROV-1
786-0 = tested on: 786-0
SR = tested on: SR
M14 = tested on: M14
LOX IMVI = tested on: LOX IMVI
TK-10 = tested on: TK-10

Measured: GI50

Cc1ccc(C(=O)O/N=C2/CCC/C2=C\c2ccccc2)cc1
inactive: EKVX > 100 µM | SN12C > 100 µM | Malme-3M > 100 µM | SK-MEL-2 > 100 µM | HOP-92 > 100 µM | OVCAR-4 > 100 µM | OVCAR-5 > 100 µM | SK-MEL-5 > 100 µM | OVCAR-3 > 100 µM | SK-MEL-28 > 100 µM | HCC 2998 > 100 µM | IGROV-1 > 100 µM | 786-0 > 100 µM | SR > 100 µM | M14 > 100 µM | LOX IMVI > 100 µM | TK-10 > 100 µM

COc1ccc(/C=C/C(=O)c2sc(Nc3ccc([N+](=O)[O-])cc3)nc2C)cc1
inactive: EKVX 43.9 µM | SN12C 50.2 µM | Malme-3M 47 µM | SK-MEL-2 17.5 µM | HOP-92 20.8 µM | OVCAR-5 > 100 µM | SK-MEL-5 18.2 µM | OVCAR-3 26 µM | SK-MEL-28 40.2 µM | HCC 2998 27.5 µM | IGROV-1 66.5 µM | 786-0 48.8 µM | LOX IMVI 31.6 µM | TK-10 45.2 µM

Cn1c(CBr)nc2c1C(=O)c1nc(CBr)[nH]c(=O)c1C2=O
inactive: EKVX > 100 µM | SN12C > 100 µM | HOP-92 61.4 µM | SK-MEL-5 > 100 µM | SK-MEL-28 > 100 µM | IGROV-1 > 100 µM | 786-0 > 100 µM | M14 > 100 µM | LOX IMVI 50.1 µM | TK-10 > 100 µM

C#CCN(N=O)C(=O)NCCCC(NC(C)=O)C(=O)NCc1ccccc1 (stereo not drawn)
inactive: EKVX > 100 µM | SN12C > 100 µM | Malme-3M > 100 µM | HOP-92 > 100 µM | OVCAR-4 > 100 µM | OVCAR-5 > 100 µM | SK-MEL-5 > 100 µM | OVCAR-3 > 100 µM | SK-MEL-28 > 100 µM | HCC 2998 > 100 µM | IGROV-1 > 100 µM | 786-0 > 100 µM | SR 6.3 µM | M14 > 100 µM | LOX IMVI 82.2 µM | TK-10 > 100 µM

CC(C)(C)OP(=O)(OC(C)(C)C)C(O)c1ccc(/C=C(\C#N)C(N)=O)cc1 (stereo not drawn)
inactive: EKVX > 100 µM | SN12C > 100 µM | Malme-3M > 100 µM | SK-MEL-2 > 100 µM | HOP-92 > 100 µM | OVCAR-4 > 100 µM | OVCAR-5 > 100 µM | OVCAR-3 > 100 µM | SK-MEL-28 > 100 µM | HCC 2998 > 100 µM | IGROV-1 > 100 µM | 786-0 > 100 µM | M14 > 100 µM | LOX IMVI > 100 µM | TK-10 > 100 µM

OCC[N+]12CCCN1CCC2
inactive: EKVX > 100 µM | SN12C > 100 µM | Malme-3M > 100 µM | SK-MEL-2 > 100 µM | HOP-92 > 100 µM | OVCAR-4 > 100 µM | OVCAR-5 > 100 µM | SK-MEL-5 > 100 µM | OVCAR-3 > 100 µM | SK-MEL-28 > 100 µM | HCC 2998 > 100 µM | IGROV-1 > 100 µM | 786-0 > 100 µM | SR > 100 µM | M14 > 100 µM | LOX IMVI > 100 µM | TK-10 > 100 µM

N#C/C(=C1\SC(/N=N/c2ccc(Cl)cc2)C(=O)N1c1ccccc1)c1nc2ccccc2[nH]1 (stereo not drawn)
inactive: EKVX 47.3 µM | SN12C 96.8 µM | Malme-3M 28.4 µM | SK-MEL-2 18.2 µM | HOP-92 18.8 µM | OVCAR-4 23 µM | OVCAR-5 25.6 µM | SK-MEL-5 35 µM | OVCAR-3 17.1 µM | SK-MEL-28 36 µM | 786-0 13.7 µM | M14 20.1 µM | LOX IMVI 15 µM | TK-10 24.9 µM

O=S(=O)(O)c1ccc(/N=N/c2nc(C(F)(F)F)c(C(F)(F)F)[nH]2)cc1
inactive: EKVX 43.5 µM | SN12C 66.5 µM | Malme-3M 29.2 µM | SK-MEL-2 30.3 µM | HOP-92 16.6 µM | OVCAR-4 21.6 µM | OVCAR-5 18.1 µM | SK-MEL-5 > 100 µM | OVCAR-3 33 µM | SK-MEL-28 19.2 µM | IGROV-1 > 100 µM | 786-0 > 100 µM | SR 21.2 µM | M14 20.8 µM | LOX IMVI 15.8 µM | TK-10 > 100 µM

COc1ccc(/C(=N/NC(=O)NN)C(c2ccc(OC)cc2)C2(O)CNc3c(Cl)cc(Cl)cc32)cc1 (stereo not drawn)
inactive: EKVX > 100 µM | SN12C > 100 µM | Malme-3M > 100 µM | SK-MEL-2 > 100 µM | HOP-92 37.7 µM | OVCAR-4 > 100 µM | OVCAR-5 > 100 µM | SK-MEL-5 > 100 µM | OVCAR-3 > 100 µM | SK-MEL-28 > 100 µM | HCC 2998 > 100 µM | IGROV-1 > 100 µM | 786-0 > 100 µM | M14 > 100 µM | LOX IMVI > 100 µM | TK-10 > 100 µM

COc1ccc(N2C(=O)C3c4[nH]c5ccccc5c4C4CCCCCCCCCCC4C3C2=O)cc1 (stereo not drawn)
inactive: EKVX 23.4 µM | SN12C 4.89 µM | Malme-3M 17.1 µM | SK-MEL-2 > 100 µM | HOP-92 19 µM | OVCAR-4 26.2 µM | OVCAR-5 > 37.1 µM | SK-MEL-5 21.7 µM | OVCAR-3 9.95 µM | SK-MEL-28 11.9 µM | HCC 2998 > 100 µM | IGROV-1 > 28.2 µM | 786-0 3.65 µM | SR 10.8 µM | M14 7.8 µM | LOX IMVI 11.1 µM | TK-10 > 43.8 µM

Cc1ccc(S(=O)(=O)NC(=O)C2S(=O)(=O)OCCOS2(=O)=O)cc1
inactive: EKVX > 100 µM | SN12C > 100 µM | Malme-3M > 100 µM | SK-MEL-2 > 100 µM | HOP-92 > 100 µM | OVCAR-4 > 100 µM | SK-MEL-5 > 100 µM | OVCAR-3 > 100 µM | SK-MEL-28 > 100 µM | HCC 2998 > 100 µM | 786-0 > 100 µM | SR > 100 µM | M14 > 100 µM | TK-10 > 100 µM

CCOC(=O)c1[nH]c(COC(C)=O)c2c1CCCCCCCCCC2
inactive: EKVX > 100 µM | SN12C > 100 µM | Malme-3M > 100 µM | SK-MEL-2 > 100 µM | HOP-92 > 100 µM | OVCAR-4 > 100 µM | OVCAR-5 > 100 µM | SK-MEL-5 > 100 µM | OVCAR-3 > 100 µM | HCC 2998 > 100 µM | IGROV-1 > 100 µM | 786-0 > 100 µM | SR > 100 µM | M14 > 100 µM | LOX IMVI > 100 µM | TK-10 > 100 µM

COc1cc2c(cc1C1=NC(C)(C)CO1)OCO2
inactive: EKVX > 100 µM | SN12C > 100 µM | Malme-3M > 100 µM | SK-MEL-2 > 100 µM | HOP-92 > 100 µM | OVCAR-4 > 100 µM | SK-MEL-5 > 100 µM | OVCAR-3 > 100 µM | SK-MEL-28 > 100 µM | IGROV-1 > 100 µM | 786-0 > 100 µM | SR > 100 µM | M14 > 100 µM | TK-10 > 100 µM

CN(C)c1ccc(/C=c2\sc3nnc(-c4cccnc4)n3c2=O)cc1
inactive: EKVX > 100 µM | SN12C > 100 µM | Malme-3M > 100 µM | SK-MEL-2 > 100 µM | HOP-92 > 100 µM | OVCAR-4 > 100 µM | OVCAR-5 > 100 µM | SK-MEL-5 > 100 µM | OVCAR-3 > 100 µM | SK-MEL-28 > 100 µM | HCC 2998 > 100 µM | IGROV-1 > 100 µM | 786-0 > 100 µM | M14 > 100 µM | LOX IMVI > 100 µM | TK-10 > 100 µM

CC(C)=CC(=O)c1c(C(=O)O)nc2ccccc2[n+]1[O-]
inactive: EKVX > 100 µM | SN12C > 100 µM | SK-MEL-2 > 100 µM | HOP-92 > 100 µM | OVCAR-4 > 100 µM | OVCAR-5 > 100 µM | SK-MEL-5 > 100 µM | SK-MEL-28 > 100 µM | HCC 2998 > 100 µM | IGROV-1 > 100 µM | 786-0 > 100 µM | SR > 100 µM | M14 > 100 µM | LOX IMVI > 100 µM | TK-10 > 100 µM

CSc1nc(NC2OCC(OC(C)=O)C(OC(C)=O)C2OC(C)=O)c(/N=C\C=N\c2c(NC3OCC(OC(C)=O)C(OC(C)=O)C3OC(C)=O)nc(SC)n(C)c2=O)c(=O)n1C (stereo not drawn)
inactive: EKVX > 100 µM | SN12C > 100 µM | Malme-3M > 100 µM | SK-MEL-2 > 100 µM | HOP-92 > 100 µM | OVCAR-4 > 100 µM | OVCAR-5 > 100 µM | SK-MEL-5 > 100 µM | OVCAR-3 > 100 µM | SK-MEL-28 > 100 µM | HCC 2998 > 100 µM | IGROV-1 > 100 µM | 786-0 > 100 µM | SR > 100 µM | M14 > 100 µM | LOX IMVI > 100 µM | TK-10 > 100 µM

C=CC[P@@]1(=O)O[C@H](c2ccccc2)C(C)N1C(C)C (stereo partly drawn)
inactive: EKVX > 100 µM | SN12C > 100 µM | Malme-3M > 100 µM | OVCAR-4 > 100 µM | OVCAR-5 > 100 µM | SK-MEL-5 > 100 µM | OVCAR-3 > 100 µM | SK-MEL-28 > 100 µM | HCC 2998 > 100 µM | IGROV-1 > 100 µM | 786-0 > 100 µM | SR > 100 µM | M14 > 100 µM | LOX IMVI > 100 µM | TK-10 > 100 µM

COc1cc(/C=C/c2ccc(OC(C)=O)cc2)cc(OC)c1OC
inactive: EKVX 26.3 µM | SN12C 42 µM | Malme-3M 26 µM | HOP-92 30 µM | OVCAR-4 22.8 µM | OVCAR-5 18 µM | SK-MEL-5 18.6 µM | OVCAR-3 22.6 µM | SK-MEL-28 41.5 µM | IGROV-1 32.4 µM | 786-0 25.4 µM | M14 27.9 µM | LOX IMVI 29.2 µM | TK-10 31.9 µM
